This is an account of results in PMC10174618, “Monoterpenoid aryl hydrocarbon receptor allosteric antagonists protect against ultraviolet skin damage in female mice” (Nature Communications, 2023).

Holding throughout (test): biochemical
What all share (parameters): KINOMEscan scanMAX active site-directed competition binding assay, percent of control, 468 kinases
What all share (conditions): competition binding, percent of control

One experiment has as its target EPHA4 (Homo sapiens, UniProt P54764). A digest of the protocol:
(§1)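 KINOMEscan active site-directed competition binding assay against 468 human kinases with 100 μM S-carvone. Binding expressed as % of control, with 35% of control as the inhibition threshold.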

For another experiment, the target named is T1, DRAK1 (Homo sapiens, UniProt Q9UEE5).
T1 construct: gene STK17A
A digest of the protocol:
as §1

In a further experiment the target is FRK (Homo sapiens, UniProt P42685). A digest of the protocol:
as §1

In a further experiment the target is PKN1 (Homo sapiens, UniProt Q16512). A digest of the protocol: as §1
The target in a further experiment is PIKFYVE (Homo sapiens, UniProt Q9Y2I7). The gist of the method:
as §1

The next experiment addresses T2, OSR1 (Homo sapiens, UniProt O95747).
T2 construct: gene OXSR1
The gist of the method:
as §1

The next experiment addresses FLT4 (Homo sapiens, UniProt P35916). The gist of the method: as §1
The target in a further experiment is T3, YSK4 (Homo sapiens, UniProt Q56UN5).
T3 construct: gene MAP3K19
A digest of the protocol:
as §1

Experiment [1] concerns the target T4, ABL1(E255K)-phosphorylated (Homo sapiens, UniProt P00519, E255K).
T4 construct: phosphorylated
A digest of the protocol: as §1

Another experiment addresses PIM2 (Homo sapiens, UniProt Q9P1W9). The gist of the method:
as §1

A further experiment deals with CDK8 (Homo sapiens, UniProt P49336). A digest of the protocol: as §1
For another experiment, the target named is T5, MST4 (Homo sapiens, UniProt Q9P289).
T5 construct: gene STK26
The gist of the method:
as §1

The next experiment concerns the target MYLK (Homo sapiens, UniProt Q15746). A digest of the protocol: as §1
For another experiment, the target named is BUB1 (Homo sapiens, UniProt O43683). A digest of the protocol: as §1
The target in experiment [2] is T6, RSK3(Kin.Dom.2-C-terminal) (Homo sapiens, UniProt Q15349).
T6 construct: gene RPS6KA2; Kin.Dom.2-C-terminal
A digest of the protocol:
as §1

The target of a further experiment is EGFR(L747-T751del,Sins) (Homo sapiens, UniProt P00533, DEL747-750/T751S). The gist of the method:
as §1

The next experiment has as its target EPHB1 (Homo sapiens, UniProt P54762). The gist of the method:
as §1

The target of a further experiment is SRPK3 (Homo sapiens, UniProt Q9UPE1). The gist of the method:
as §1

A further experiment has as its target ACVR1B (Homo sapiens, UniProt P36896). A digest of the protocol:
as §1

The target of the next experiment is SLK (Homo sapiens, UniProt Q9H2G2). The gist of the method:
as §1

In another experiment the target is T7, LZK (Homo sapiens, UniProt O43283).
T7 construct: gene MAP3K13
The gist of the method: as §1

T3 sequence (Q56UN5 whole entry): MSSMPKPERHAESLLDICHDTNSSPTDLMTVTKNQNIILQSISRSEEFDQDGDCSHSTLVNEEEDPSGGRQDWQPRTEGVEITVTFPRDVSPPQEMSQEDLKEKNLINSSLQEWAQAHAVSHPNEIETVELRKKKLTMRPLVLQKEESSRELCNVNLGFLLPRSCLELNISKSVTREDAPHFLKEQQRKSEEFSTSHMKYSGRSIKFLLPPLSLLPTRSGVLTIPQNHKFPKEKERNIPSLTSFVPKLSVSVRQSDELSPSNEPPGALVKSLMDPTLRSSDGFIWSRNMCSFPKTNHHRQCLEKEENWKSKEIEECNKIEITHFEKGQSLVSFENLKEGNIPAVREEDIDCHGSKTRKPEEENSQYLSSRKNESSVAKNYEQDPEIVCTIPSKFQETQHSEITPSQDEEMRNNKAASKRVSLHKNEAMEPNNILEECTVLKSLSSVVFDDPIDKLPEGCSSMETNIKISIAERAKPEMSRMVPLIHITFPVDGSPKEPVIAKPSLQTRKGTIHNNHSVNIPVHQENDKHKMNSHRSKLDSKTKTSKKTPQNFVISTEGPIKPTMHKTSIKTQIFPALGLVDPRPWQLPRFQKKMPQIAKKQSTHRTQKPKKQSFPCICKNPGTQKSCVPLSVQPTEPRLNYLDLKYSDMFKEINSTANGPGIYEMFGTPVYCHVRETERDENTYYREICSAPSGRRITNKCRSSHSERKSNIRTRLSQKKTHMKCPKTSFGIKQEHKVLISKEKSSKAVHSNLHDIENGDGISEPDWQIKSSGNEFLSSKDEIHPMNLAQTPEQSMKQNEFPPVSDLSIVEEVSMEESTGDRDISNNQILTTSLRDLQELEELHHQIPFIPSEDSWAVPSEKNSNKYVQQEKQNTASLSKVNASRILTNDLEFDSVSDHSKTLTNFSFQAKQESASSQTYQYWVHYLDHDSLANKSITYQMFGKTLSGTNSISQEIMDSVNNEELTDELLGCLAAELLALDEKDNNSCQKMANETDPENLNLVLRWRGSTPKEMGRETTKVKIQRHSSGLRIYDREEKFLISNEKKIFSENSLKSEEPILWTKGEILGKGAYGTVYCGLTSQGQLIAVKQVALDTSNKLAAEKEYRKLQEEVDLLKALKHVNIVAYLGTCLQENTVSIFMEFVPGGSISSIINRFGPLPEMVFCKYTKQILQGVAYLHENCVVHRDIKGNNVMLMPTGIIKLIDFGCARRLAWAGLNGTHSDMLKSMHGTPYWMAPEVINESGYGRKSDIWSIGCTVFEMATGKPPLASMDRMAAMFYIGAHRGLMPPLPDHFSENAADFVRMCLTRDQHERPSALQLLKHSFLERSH
Chain of EPHA4 (P54764 whole entry): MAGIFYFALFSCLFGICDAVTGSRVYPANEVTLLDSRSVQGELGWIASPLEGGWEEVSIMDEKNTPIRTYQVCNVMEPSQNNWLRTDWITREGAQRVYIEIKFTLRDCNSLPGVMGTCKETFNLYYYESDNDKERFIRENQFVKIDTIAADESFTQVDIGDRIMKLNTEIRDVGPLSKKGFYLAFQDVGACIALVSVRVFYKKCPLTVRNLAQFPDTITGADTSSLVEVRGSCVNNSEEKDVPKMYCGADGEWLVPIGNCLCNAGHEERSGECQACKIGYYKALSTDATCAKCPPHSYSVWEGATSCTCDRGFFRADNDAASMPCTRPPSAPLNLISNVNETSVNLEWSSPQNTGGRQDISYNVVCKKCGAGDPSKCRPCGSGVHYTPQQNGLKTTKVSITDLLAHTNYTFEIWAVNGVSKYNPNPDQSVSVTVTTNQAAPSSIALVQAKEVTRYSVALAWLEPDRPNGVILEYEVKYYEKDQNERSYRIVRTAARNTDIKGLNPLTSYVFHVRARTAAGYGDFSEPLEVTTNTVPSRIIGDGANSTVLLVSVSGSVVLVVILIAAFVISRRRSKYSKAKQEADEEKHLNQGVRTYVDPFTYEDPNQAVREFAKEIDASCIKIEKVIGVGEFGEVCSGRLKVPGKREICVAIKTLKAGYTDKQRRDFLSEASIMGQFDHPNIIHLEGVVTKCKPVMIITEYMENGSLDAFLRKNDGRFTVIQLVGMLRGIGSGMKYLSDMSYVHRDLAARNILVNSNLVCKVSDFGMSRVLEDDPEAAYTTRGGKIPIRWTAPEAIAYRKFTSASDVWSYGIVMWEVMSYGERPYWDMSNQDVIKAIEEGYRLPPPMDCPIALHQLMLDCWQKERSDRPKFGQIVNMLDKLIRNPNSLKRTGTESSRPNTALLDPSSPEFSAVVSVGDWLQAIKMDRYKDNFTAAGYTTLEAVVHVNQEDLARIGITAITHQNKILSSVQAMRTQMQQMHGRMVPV
Chain of ACVR1B (P36896 whole entry): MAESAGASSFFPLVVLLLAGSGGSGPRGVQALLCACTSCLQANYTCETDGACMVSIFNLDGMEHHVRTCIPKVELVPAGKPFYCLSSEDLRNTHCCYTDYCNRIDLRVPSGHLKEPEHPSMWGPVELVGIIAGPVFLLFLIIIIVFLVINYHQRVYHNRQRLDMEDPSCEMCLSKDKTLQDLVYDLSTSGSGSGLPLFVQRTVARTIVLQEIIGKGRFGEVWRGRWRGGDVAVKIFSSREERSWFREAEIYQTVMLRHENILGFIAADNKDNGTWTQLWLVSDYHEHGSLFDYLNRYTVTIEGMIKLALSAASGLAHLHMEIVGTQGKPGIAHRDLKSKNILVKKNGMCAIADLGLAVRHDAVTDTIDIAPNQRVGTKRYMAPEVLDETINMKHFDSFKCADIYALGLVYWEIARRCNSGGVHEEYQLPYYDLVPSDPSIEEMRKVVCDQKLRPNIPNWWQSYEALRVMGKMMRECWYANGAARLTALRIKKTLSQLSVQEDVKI
T6 sequence (Q15349 whole entry): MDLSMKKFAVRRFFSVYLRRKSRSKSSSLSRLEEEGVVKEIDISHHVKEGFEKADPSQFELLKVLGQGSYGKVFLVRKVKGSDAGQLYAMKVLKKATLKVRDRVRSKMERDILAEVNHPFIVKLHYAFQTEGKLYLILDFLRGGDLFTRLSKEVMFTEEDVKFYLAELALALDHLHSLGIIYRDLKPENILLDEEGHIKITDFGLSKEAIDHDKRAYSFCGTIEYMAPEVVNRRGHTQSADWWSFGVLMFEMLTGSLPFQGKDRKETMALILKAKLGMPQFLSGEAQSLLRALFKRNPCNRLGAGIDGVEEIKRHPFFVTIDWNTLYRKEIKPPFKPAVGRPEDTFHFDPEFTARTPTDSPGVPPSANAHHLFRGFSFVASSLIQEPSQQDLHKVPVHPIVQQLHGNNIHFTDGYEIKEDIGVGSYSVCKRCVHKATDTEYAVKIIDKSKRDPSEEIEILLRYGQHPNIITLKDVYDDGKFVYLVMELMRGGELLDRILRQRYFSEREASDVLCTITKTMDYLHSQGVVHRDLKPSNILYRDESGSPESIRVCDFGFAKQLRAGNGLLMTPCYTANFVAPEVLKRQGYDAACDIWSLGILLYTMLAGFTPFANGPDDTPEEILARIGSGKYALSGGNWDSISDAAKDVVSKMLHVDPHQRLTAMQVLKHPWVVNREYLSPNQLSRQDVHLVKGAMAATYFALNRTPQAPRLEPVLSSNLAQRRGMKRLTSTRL
Chain of EPHB1 (P54762 whole entry): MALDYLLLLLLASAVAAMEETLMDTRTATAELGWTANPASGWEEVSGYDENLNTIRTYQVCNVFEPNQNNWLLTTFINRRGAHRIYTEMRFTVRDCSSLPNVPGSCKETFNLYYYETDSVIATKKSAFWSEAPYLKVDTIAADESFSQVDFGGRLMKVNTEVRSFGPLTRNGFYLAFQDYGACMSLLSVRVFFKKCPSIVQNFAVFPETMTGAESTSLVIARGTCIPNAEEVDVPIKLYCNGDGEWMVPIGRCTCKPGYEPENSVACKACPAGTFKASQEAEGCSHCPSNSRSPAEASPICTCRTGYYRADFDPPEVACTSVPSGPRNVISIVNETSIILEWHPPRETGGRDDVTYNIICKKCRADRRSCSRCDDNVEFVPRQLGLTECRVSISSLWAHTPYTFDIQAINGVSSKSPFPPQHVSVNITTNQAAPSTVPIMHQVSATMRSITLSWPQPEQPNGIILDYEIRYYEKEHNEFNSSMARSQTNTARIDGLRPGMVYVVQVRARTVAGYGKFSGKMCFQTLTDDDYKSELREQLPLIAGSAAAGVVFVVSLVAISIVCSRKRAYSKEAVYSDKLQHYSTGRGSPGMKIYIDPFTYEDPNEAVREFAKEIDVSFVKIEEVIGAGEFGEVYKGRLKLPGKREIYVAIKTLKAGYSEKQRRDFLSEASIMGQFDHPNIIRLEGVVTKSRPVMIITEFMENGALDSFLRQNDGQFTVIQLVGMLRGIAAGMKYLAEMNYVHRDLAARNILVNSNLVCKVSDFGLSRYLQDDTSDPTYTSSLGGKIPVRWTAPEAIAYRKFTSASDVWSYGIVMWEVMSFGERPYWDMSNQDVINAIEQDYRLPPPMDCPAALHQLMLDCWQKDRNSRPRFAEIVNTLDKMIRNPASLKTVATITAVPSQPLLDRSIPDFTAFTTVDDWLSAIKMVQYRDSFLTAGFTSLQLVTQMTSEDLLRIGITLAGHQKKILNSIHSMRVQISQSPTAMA
Chain of CDK8 (P49336 whole entry): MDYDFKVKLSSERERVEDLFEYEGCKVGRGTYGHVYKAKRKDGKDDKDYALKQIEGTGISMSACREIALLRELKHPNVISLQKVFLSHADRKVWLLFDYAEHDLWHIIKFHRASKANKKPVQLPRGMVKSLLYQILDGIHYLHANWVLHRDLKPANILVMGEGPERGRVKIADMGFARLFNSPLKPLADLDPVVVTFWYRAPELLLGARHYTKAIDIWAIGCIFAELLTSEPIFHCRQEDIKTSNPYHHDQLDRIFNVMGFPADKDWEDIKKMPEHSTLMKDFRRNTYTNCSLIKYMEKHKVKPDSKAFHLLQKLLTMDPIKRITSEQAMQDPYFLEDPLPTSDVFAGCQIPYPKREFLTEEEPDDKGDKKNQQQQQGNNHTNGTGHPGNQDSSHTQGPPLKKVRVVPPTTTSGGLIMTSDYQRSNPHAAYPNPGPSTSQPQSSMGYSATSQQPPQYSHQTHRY

On to `C=C(C)[C@H]1CC=C(C)C(=O)C1` [S-carvone], for which the remaining binding at 100 µM at EPHA4 came to 84%; on DRAK1 it was 100%; on FRK, 83%; at PKN1, 93%; on PIKFYVE it was 100%; on OSR1, 78%. The remaining binding at 100 µM at FLT4 was 90%; at YSK4, 61%; in [1] it was 72%; on PIM2, 86%; at CDK8, 84%; on MST4, 100%. For the same molecule, the remaining binding at 100 µM is 51% at MYLK; 85% at BUB1; 63% in experiment [2]; 78% at EGFR(L747-T751del,Sins); 88% at EPHB1; 61% on SRPK3. The remaining binding at 100 µM on ACVR1B stood at 98%; at SLK, 78%; at LZK it was 78%.
